Assay results reported in PMC6627510, “The Role of a Key Amino Acid Position in Species-Specific Proteinaceous dUTPase Inhibition” (Biomolecules, 2019).

Assays:
Assay type in all cases: binding
E. coli dUTPase (EcDUT) [1] = target: T1, E. coli dUTPase (EcDUT) (Escherichia coli, UniProt P06968, Q94H, form not given); test: X-ray crystallography, […] Å; conditions: 5 mM dUPNPP, Mg2+, pH 7.5; active site; non-hydrolysable substrate analogue
T1 construct: gene dut; expressed in E. coli BL21(DE3) Rosetta; homotrimer; C-terminal residues R150, Q151

E. coli dUTPase (EcDUT) [2] = target: T2, E. coli dUTPase (EcDUT) (Escherichia coli, UniProt P06968, Q94R/F146W, form not given); test: tryptophan fluorescence; conditions: 3 µM enzyme, 100 µM dUPNPP, 5 mM MgCl2, pH 7.5, 293 K; active site
T2 construct: gene dut; expressed in E. coli BL21(DE3) Rosetta; homotrimer; C-terminal residues R150, Q151

E. coli dUTPase (EcDUT) [3] = target: T3, E. coli dUTPase (EcDUT) (Escherichia coli, UniProt P06968, Q94H/F146W, form not given); test: tryptophan fluorescence; acrylamide quenching; conditions: 3 µM enzyme, 100 µM dUPNPP, 5 mM MgCl2, pH 7.5, 293 K; active site; quenching with 4 µM enzyme, 1.5 mM dUPNPP
T3 construct: gene dut; expressed in E. coli BL21(DE3) Rosetta; homotrimer; C-terminal residues R150, Q151

E. coli dUTPase (EcDUT) [4] = target: T4, E. coli dUTPase (EcDUT) (Escherichia coli, UniProt P06968, F146W, form not given); test: tryptophan fluorescence; acrylamide quenching; conditions: 3 µM enzyme, 100 µM dUPNPP, 5 mM MgCl2, pH 7.5, 293 K; active site; quenching with 4 µM enzyme, 1.5 mM dUPNPP
T4 construct: gene dut; expressed in E. coli BL21(DE3) Rosetta; homotrimer; C-terminal residues R150, Q151

O=c1ccn([C@H]2C[C@H](O)[C@@H](COP(=O)(O)NP(=O)(O)OP(=O)(O)O)O2)c(=O)[nH]1 [dUPNPP]
X-ray crystallography, 1.8 Å (E. coli dUTPase (EcDUT) [1]): we crystallized the EcDUT^Q93H dUTPase mutant in the presence of the non-hydrolysable substrate analogue dUPNPP
tryptophan fluorescence (E. coli dUTPase (EcDUT) [2]): allowed us to follow substrate analogue and Stl binding of the three arm-tryptophan mutant enzyme
tryptophan fluorescence; acrylamide quenching (E. coli dUTPase (EcDUT) [3]): allowed us to follow substrate analogue and Stl binding of the three arm-tryptophan mutant enzyme
tryptophan fluorescence; acrylamide quenching (E. coli dUTPase (EcDUT) [4]): allowed us to follow substrate analogue and Stl binding of the three arm-tryptophan mutant enzyme
